Measured values as given in patent US4427693A, “Antiinflammatory 4,5-diaryl-α,α-bis (polyhalomethyl)-2-thiophenemethanamines” (E. I. Du Pont de Nemours and Company, priority 1981, dated 1984).
Like-named read-outs stand apart in the source and are kept apart here.

Test system: Adjuvant-Induced Arthritis
Assay: Established Adjuvant-Induced Arthritis in Rats
Assay type: in vivo, Charles River Lewis male rats
Details: for ED50: Rattus norvegicus, 168 h, read-out: ED50 = effective dose for 50% decrease from control paw volume
Method: A procedure for detecting and comparing the antiinflammatory activity of compounds in this series and standard drugs for which there is a good correlation with human efficacy is the adjuvant-induced arthritis test in rats.
Established Adjuvant-Induced Arthritis in Rats
Charles River Lewis male rats (130-150 grams) are injected subcutaneously in plantar area of the right hind paw with 0.1 ml of adjuvant (Difco heatkilled, lyophilized Mycobacterium butyricum suspended in mineral oil 5 mg/ml). 20 Non-arthritic controls are injected with mineral oil. The animals are held for 2 weeks to allow development of arthritis. Paw volumes (uninjected, left hind paw) are measured and the adjuvant injected rats are culled and distributed to treatment groups of 10 of equal disease severity. Non-arthritic controls are distributed to 2 groups of 10. The rats are given oral doses of compound or PVA-Acacia (Polyvinyl Alcohol 1%, Gum Acacia, U.S.P. 5%, Methylparaben 0.5%) (10 ml/kg) by gavage on that day and on the 6 following days. One day after the last dose the paw volumes (uninjected, left hind paw) are measured using a Ugo Basile Volume Differential Meter Model 7101. [formula]
Dose-response regression lines of the % decrease are plotted on semi-log paper by visual fit and the ED50% decrease from control paw volume is determined by inspection.

[1] = oral by gavage, daily, 7 days, dose-response regression lines, by visual fit

| Compound | ED50 [1] | also measured |
| --- | --- | --- |
| CC(=O)Oc1ccccc1C(=O)O [Aspirin, reference compound] |  | ED50 (po): 270 mg/kg |
| COc1ccc(-c2cc(C(N)(C(F)(F)F)C(F)(F)F)sc2-c2ccc(OC)cc2)cc1 [Example 1, 4,5-Bis(4-methoxyphenyl)-α,α-bis(trifluoromethyl)-2-thiophenemethanamine] |  | Percent Decrease From Control Paw Volume (daily oral dose 27 mg/kg, 7 days, p < 0.001 compared to control by Students "t" test): 47% |
| NC(c1cc(-c2ccc(F)cc2)c(-c2ccc(F)cc2)s1)(C(F)(F)F)C(F)(F)F [Example 2, 4,5-bis(4-fluorophenyl)-α,α-bis(trifluoromethyl)-2-thiophenemethanamine] | 1.3 mg/kg |  |
| CSc1ccc(-c2sc(C(N)(C(F)(F)F)C(F)(F)F)cc2-c2ccc(F)cc2)cc1 [Example 3, 4-(4-fluorophenyl)-5-(4-methylthiophenyl)-α,α-bis(trifluoromethyl)-2-thiophenemethanamine] | 9 mg/kg |  |
| NC(c1cc(-c2ccc(F)cc2)c(-c2ccc(Cl)cc2)s1)(C(F)(F)F)C(F)(F)F [Example 4] |  | Percent Decrease From Control Paw Volume (daily oral dose 9 mg/kg, 7 days, p < 0.1 compared to control by Students "t" test): 37% |
| NC(c1cc(-c2ccccc2)c(-c2ccccc2)s1)(C(F)(F)F)C(F)(F)F [Example 5] | 17 mg/kg |  |
| NC(c1cc(-c2ccc(F)cc2)c(-c2ccc(F)cc2)s1)(C(F)(F)F)C(F)(F)Cl (stereo not shown) [Example 6] | 3.8 mg/kg |  |
| NC(c1cc(-c2ccc(F)cc2)c(-c2ccc(F)cc2)s1)(C(F)F)C(F)(F)F (stereo not shown) [Example 7] | 10.5 mg/kg |  |
| Cc1ccc(-c2cc(C(N)(C(F)(F)F)C(F)(F)F)sc2-c2ccc(C)cc2)cc1 [Example 13] |  | Percent Decrease From Control Paw Volume (daily oral dose 24 mg/kg, 7 days, p < 0.05 compared to control by Students "t" test): 27% |
| NC(c1cc(-c2ccccc2F)c(-c2ccccc2F)s1)(C(F)(F)F)C(F)(F)F [Example 18] |  | Percent Decrease From Control Paw Volume (daily oral dose 81 mg/kg, 7 days, p < 0.001 compared to control by Students "t" test): 41% |
| CNC(c1cc(-c2ccc(F)cc2)c(-c2ccc(F)cc2)s1)(C(F)(F)F)C(F)(F)F [Example 28, 1-[4,5-Bis(4-fluorophenyl)thiophen-2-yl]-2,2,2-trifluoro-1-trifluoromethyl-N-methylethanamine] | 6.2 mg/kg |  |
| COc1ccc2c(c1)c(CC(=O)O)c(C)n2C(=O)c1ccc(Cl)cc1 [Indomethacin, reference compound] |  | ED50 (po): 0.25 mg/kg |
| CCCCC1C(=O)N(c2ccccc2)N(c2ccccc2)C1=O [Phenylbutazone, reference compound] | 10 mg/kg |  |
